According to patent US20120046364A1, “Novel Sulfonic Acid-Containing Thyromimetics, and Methods for Their Use” (METABASIS THERAPEUTICS, INC., priority 2009, published 2012):

How the values were obtained:
[1] = PO 24 Hr. CF TPC decrease; assay type: in vivo; details: dose 0.2 mg/kg
Excerpt: Administering sulfonic acid-containing compounds that bind to a TR to animals can result in changes in lipids, including hepatic and/or plasma cholesterol levels; changes in lipoprotein levels including LDL-cholesterol, lipoprotein a (Lp(a)); changes in hepatic glycogen levels; and changes in energy expenditure as measured by changes in oxygen consumption and in some cases animal weight. For example, the effect on cholesterol may be determined using cholesterol fed animals such as normal rats and hamsters, or TRα^−/− knockout mice. Cholesterol may be measured using standard tests. Hepatic glycogen levels may be determined from livers isolated from treated animals. Changes in energy expenditure may be monitored by measuring changes in oxygen consumption (MVO2). Varieties of methods are well described in the literature and include measurement in the whole animal using Oxymax chambers (U.S. Pat. No. 6,441,015). Livers from treated rats can also be evaluated (Fernandez et al., Toxicol. Lett. 69(2):205-10 (1993)) as well as isolated mitochondria from liver (Carreras et al., Am. J. Physiol. Heart Circ. Physiol. 281(6):H2282-8 (2001)). Hepatocytes from treated rats can also be evaluated (Ismail-Beigi F et al., J Gen Physiol. 73(3):369-83 (1979)).

[2] = biological target: T1, human thyroid hormone receptor TRα (TRα1) (Homo sapiens, UniProt P10827); test: Receptor binding, TRα (125I-T3 displacement / SPA)
T1 construct: made in house; host or cells: Sf9 insect cells (baculovirus), crude lysate
T1 sequence (P10827 1-410 isoform P10827-2): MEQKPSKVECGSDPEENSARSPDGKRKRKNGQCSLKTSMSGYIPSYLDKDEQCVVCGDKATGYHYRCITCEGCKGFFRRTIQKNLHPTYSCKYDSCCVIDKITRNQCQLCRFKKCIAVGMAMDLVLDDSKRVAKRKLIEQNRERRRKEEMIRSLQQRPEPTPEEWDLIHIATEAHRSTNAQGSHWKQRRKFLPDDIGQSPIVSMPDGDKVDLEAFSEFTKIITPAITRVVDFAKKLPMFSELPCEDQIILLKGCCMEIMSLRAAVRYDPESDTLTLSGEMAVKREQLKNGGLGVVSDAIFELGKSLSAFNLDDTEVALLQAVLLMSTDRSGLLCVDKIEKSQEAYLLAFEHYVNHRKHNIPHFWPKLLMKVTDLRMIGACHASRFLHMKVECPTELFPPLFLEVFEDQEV
T1 sequence (P19793 1-462 partner): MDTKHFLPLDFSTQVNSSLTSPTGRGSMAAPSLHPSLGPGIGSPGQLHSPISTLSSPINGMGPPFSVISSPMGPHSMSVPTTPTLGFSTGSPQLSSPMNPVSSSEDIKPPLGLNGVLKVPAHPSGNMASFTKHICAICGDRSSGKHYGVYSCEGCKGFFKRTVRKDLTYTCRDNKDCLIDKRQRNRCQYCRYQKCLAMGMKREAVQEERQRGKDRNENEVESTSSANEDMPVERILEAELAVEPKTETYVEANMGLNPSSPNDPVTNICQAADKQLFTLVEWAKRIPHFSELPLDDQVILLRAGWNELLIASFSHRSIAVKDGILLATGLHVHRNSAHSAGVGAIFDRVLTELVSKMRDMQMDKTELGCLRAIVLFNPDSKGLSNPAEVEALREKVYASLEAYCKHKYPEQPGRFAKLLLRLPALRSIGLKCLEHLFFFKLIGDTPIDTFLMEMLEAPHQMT
Method: (§1) Methods: Baculoviruses expressing TRα1, TRβ1 and RXRα are generated using cDNA and other reagents from Invitrogen (Carlsbad, Calif.). To produce TR/RXR heterodimer proteins, the sf9 insect cells are first grown to a density of 15×10^5 cells/mL. TRα1 or TRβ1 and RXRα baculovirus stocks are added to the cell culture with a ratio of 1 to 1 (multiplicity of infection=10). The cells are harvested three days after the infection. […] The bound ^125I-T3 is counted with a scintillation counter.
(§2) Binding of compounds to either the TRα1 or TRβ1 are also performed by means of scintillation proximity assays (SPA). The SPA assay, a common method used for the quantitation of receptor-ligand equilibria, makes use of special beads coated with a scintillant and a capture molecule, copper, which binds to the histidine-tagged α or β receptor.

[3] = biological target: T2, human thyroid hormone receptor TRβ (TRβ1) (Homo sapiens, UniProt P10828); test: Receptor binding, TRβ (125I-T3 displacement / SPA); details: for Ratio: TRα Kd / TRβ Kd
T2 construct: made in house; host or cells: Sf9 insect cells (baculovirus), crude lysate
T2 sequence (P10828 1-461): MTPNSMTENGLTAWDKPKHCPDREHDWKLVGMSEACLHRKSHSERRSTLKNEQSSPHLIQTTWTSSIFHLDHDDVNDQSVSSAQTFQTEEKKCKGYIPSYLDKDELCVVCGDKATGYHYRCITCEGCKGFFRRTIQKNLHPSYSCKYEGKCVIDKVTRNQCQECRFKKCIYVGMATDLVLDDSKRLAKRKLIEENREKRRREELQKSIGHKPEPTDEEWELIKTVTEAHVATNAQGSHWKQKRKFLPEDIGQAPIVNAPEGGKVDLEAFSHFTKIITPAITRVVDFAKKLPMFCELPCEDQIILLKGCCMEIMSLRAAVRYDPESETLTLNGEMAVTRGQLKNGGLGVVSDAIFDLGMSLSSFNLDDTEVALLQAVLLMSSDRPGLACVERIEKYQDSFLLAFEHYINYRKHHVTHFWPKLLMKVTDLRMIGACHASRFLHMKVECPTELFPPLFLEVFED
T2 sequence (P19793 1-462 partner): T1 sequence (P19793 1-462 partner)
Method: as §1, §2

Row | Kd [2] [nM] | Kd [3] [nM] | Ratio [3] | Compound | PO 24 Hr. CF TPC Dec (d % of Cont) [1]
1 | 1.1 | 0.4 | 2.8 | 3,5-dimethyl-4-(4′-hydroxy-3′-iso-propylbenzyl)phenyl-methanesulfonic acid [Compound 2] | −42 d % of Cont
2 | 12 | 0.7 | 17.1 | Cc1cc(CS(=O)(=O)O)cc(C)c1Cc1ccc(O)c(C(C)C)c1 [Compound 1] | −45 d % of Cont
